Measured values published in patent US11753407B2, “Compounds for treating spinal muscular atrophy” (PTC Therapeutics, Inc., priority 2012, dated 2023).

Columns and labels:
[1] = system: SMN2 mRNA in tissues of C/C-allele SMA mice; assay: Endogenous SMN2 mRNA end-point semi-quantitative RT-PCR splicing assay in animal tissues; assay type: in vivo; conditions: brain and muscle, BID oral gavage 10 days, end-point RT-PCR (FIG. 7)
Description: The endpoint reverse transcription-PCR (RT-PCR) splicing assay is used to quantify the levels of the full length and Δ7 SMN2 mRNA in tissues from mice treated with test compound.
Protocol. C/C-allele SMA mice are treated by oral gavage BID for 10 days with test compounds in 0.5% HPMC and 0.1% Tween-80. Tissue samples are collected and snap frozen for RNA purification.
Tissue samples (20-40 mg) are homogenized in QIAzol Lysis Reagent for 2 minutes at 20 Hz in the TissueLyser II using one stainless steel bead. After addition of chloroform, the homogenate is separated into aqueous and organic phases by centrifugation. RNA partitioned to the upper, aqueous phase is extracted and ethanol is added to provide appropriate binding conditions. The sample is then applied to the RNeasy spin column from the RNeasy Mini Kit, where total RNA binds to the membrane. The RNA is eluted in RNase-free water then stored at −20° C.
SMN2 spliced products are identified using the following amplification primers in Table 8. These primers hybridize to a nucleotide sequence in exon 6 (SMN Forward D, SEQ ID NO. 13) (nucleotide 22 to nucleotide 46) and exon 8 (SMN Reverse C, SEQ ID NO. 12), common to human SMN1 and SMN2 mRNA.
To synthesize cDNA, combine 1 μL of RNA solution (25-50 ng), 4 μL of 5× iScript reaction mix, 1 μL of reverse transcriptase, and 10 μL of water are combined and incubates 25° C. for 5 min followed by 42° C. for 30 min followed by 85° C. for 5 min. The cDNA solution is stored at −20° C.
To perform endpoint PCR, 5 μL of cDNA, 0.2 μL of 100 μM forward primer, 0.2 μL of 100 μM reverse primer, and 22.5 μL of polymerase super mix are combined in a 96 well semiskirted PCR plate. PCR is carried out at the following temperatures for the indicated time: Step 1: 94° C. (2 min), Step 2: 94° C. (30 sec), Step 3: 55° C. (30 sec), Step 4: 68° C. (1 min), then repeat Steps 2 to 4 for a total of 33 cycles, then hold at 4° C.
10 μL of each PCR sample is electrophoretically separated on a 2% agarose E-gel for 14 minutes stained with dsDNA staining reagents (e.g., ethidium bromide) and visualized using a gel imager.

[2] = Body weight of neonatal Δ7 SMA mice; assay type: in vivo; conditions: neonatal SMA Δ7 homozygous knockout mice
Description: The change in body weight of neonatal SMA mice is used to determine whether treatment with a test compound improves body weight.
Protocol. SMA Δ7 homozygous knockout mice are dosed intraperitoneally (IP) with test compound or vehicle (100% DMSO) QD from PND 3 until the dose regimen is switched to an oral dose BID in 0.5% hydroxypropylmethyl cellulose (HPMC) with 0.1% Tween-80 at a dose 3.16-fold higher than the dose used for IP. Body weights of SMA Δ7 mice treated with test compound or vehicle and age matched heterozygous mice are recorded every day.

SMILES | SMN2 FL mRNA [1] | SMN2 Δ7 mRNA [1] | body weight ([2]; IP QD PND 3 to PND 30, then orally BID from PND 31 until study end (FIG. 13a)) | body weight ([2]; IP QD PND 3 to PND 23, then orally BID from PND 24 until study end (FIG. 13b))
COc1ccc(-c2cc(=O)n3cc(N4CCNCC4)ccc3n2)cc1OC [Cpd 6, 2-(3,4-dimethoxyphenyl)-7-(piperazin-1-yl)-4H-pyrido[1,2-a]pyrimidin-4-one] | progressively more SMN2 FL mRNA | less SMN2 Δ7 mRNA | improved compared to vehicle treated mice | –
Cc1cn2nc(-c3cc(=O)n4cc(N5CCN(C)CC5)ccc4n3)cc2c(C)n1 [Cpd 170, 2-(4,6-dimethylpyrazolo[1,5-a]pyrazin-2-yl)-7-(4-methylpiperazin-1-yl)-4H-pyrido[1,2-a]pyrimidin-4-one] | progressively more SMN2 FL mRNA | less SMN2 Δ7 mRNA | – | improved compared to vehicle treated mice
